According to the NIST ThermoML archive (doi:10.1021/je700261b):

Experiment: xn = mol fraction of the nth substance listed
Details: Liquid

CCCCO [butan-1-ol] + O=C=O
Details | mass density [kg/m3]
352.82 K, 13001 kPa, x2 = 0.1842 | 780.49
352.82 K, 14050 kPa, x2 = 0.1842 | 781.67
352.82 K, 15000 kPa, x2 = 0.1842 | 782.72
352.82 K, 15999 kPa, x2 = 0.1842 | 783.84
352.82 K, 17008 kPa, x2 = 0.1842 | 784.88
352.82 K, 18066 kPa, x2 = 0.1842 | 786.01
352.82 K, 19002 kPa, x2 = 0.1842 | 787.01
352.82 K, 20015 kPa, x2 = 0.1842 | 788.03
352.82 K, 21043 kPa, x2 = 0.1842 | 789.11
352.82 K, 22025 kPa, x2 = 0.1842 | 790.1
352.82 K, 23024 kPa, x2 = 0.1842 | 791.11
352.82 K, 24015 kPa, x2 = 0.1842 | 792.1
352.82 K, 25100 kPa, x2 = 0.1842 | 793.18
352.83 K, 2007 kPa, x2 = 0.0857 | 766.96
352.83 K, 3023 kPa, x2 = 0.0857 | 768.13
352.83 K, 3953 kPa, x2 = 0.0857 | 769.18
352.83 K, 5008 kPa, x2 = 0.0857 | 770.34
352.83 K, 5991 kPa, x2 = 0.0857 | 771.43
352.83 K, 7011 kPa, x2 = 0.0857 | 772.54
352.83 K, 7992 kPa, x2 = 0.0857 | 773.57
352.83 K, 9016 kPa, x2 = 0.0857 | 774.63
352.83 K, 10033 kPa, x2 = 0.0857 | 775.71
352.83 K, 10983 kPa, x2 = 0.0857 | 776.62
352.83 K, 12020 kPa, x2 = 0.0857 | 777.74
352.83 K, 13038 kPa, x2 = 0.0857 | 778.75
352.83 K, 13990 kPa, x2 = 0.0857 | 779.64
352.83 K, 14986 kPa, x2 = 0.0857 | 780.63
352.83 K, 16028 kPa, x2 = 0.0857 | 781.61
352.83 K, 16995 kPa, x2 = 0.0857 | 782.54
352.83 K, 17994 kPa, x2 = 0.0857 | 783.45
352.83 K, 18991 kPa, x2 = 0.0857 | 784.4
352.83 K, 20014 kPa, x2 = 0.0857 | 785.33
352.83 K, 21017 kPa, x2 = 0.0857 | 786.18
352.83 K, 21993 kPa, x2 = 0.0857 | 787.09
352.83 K, 23041 kPa, x2 = 0.0857 | 788.01
352.83 K, 24037 kPa, x2 = 0.0857 | 788.92
352.83 K, 25058 kPa, x2 = 0.0857 | 789.81
352.85 K, 13091 kPa, x2 = 0.4972 | 783.81
352.85 K, 13958 kPa, x2 = 0.4972 | 785.52
352.85 K, 15066 kPa, x2 = 0.4972 | 787.67
352.85 K, 16029 kPa, x2 = 0.4972 | 789.49
352.85 K, 17077 kPa, x2 = 0.4972 | 791.44
352.85 K, 18031 kPa, x2 = 0.4972 | 793.15
352.85 K, 19033 kPa, x2 = 0.4972 | 794.93
352.85 K, 20018 kPa, x2 = 0.4972 | 796.63
352.85 K, 21055 kPa, x2 = 0.4972 | 798.4
352.85 K, 22035 kPa, x2 = 0.4972 | 800
352.85 K, 23067 kPa, x2 = 0.4972 | 801.7
352.85 K, 24007 kPa, x2 = 0.4972 | 803.18
352.85 K, 25035 kPa, x2 = 0.4972 | 804.81
352.88 K, 14075 kPa, x2 = 0.5965 | 780.49
352.88 K, 15042 kPa, x2 = 0.5965 | 783.18
352.88 K, 16039 kPa, x2 = 0.5965 | 785.88
352.88 K, 17076 kPa, x2 = 0.5965 | 788.55
352.88 K, 18030 kPa, x2 = 0.5965 | 790.96
352.88 K, 18449 kPa, x2 = 0.8663 | 712.26
352.88 K, 19037 kPa, x2 = 0.5965 | 793.41
352.88 K, 19044 kPa, x2 = 0.8663 | 719.05
352.88 K, 20049 kPa, x2 = 0.5965 | 795.8
352.88 K, 20064 kPa, x2 = 0.8663 | 729.73
352.88 K, 21030 kPa, x2 = 0.5965 | 798.05
352.88 K, 21052 kPa, x2 = 0.8663 | 739.04
352.88 K, 22036 kPa, x2 = 0.5965 | 800.27
352.88 K, 22047 kPa, x2 = 0.8663 | 747.62
352.88 K, 23019 kPa, x2 = 0.5965 | 802.43
352.88 K, 23067 kPa, x2 = 0.8663 | 755.76
352.88 K, 24035 kPa, x2 = 0.8663 | 762.91
352.88 K, 24039 kPa, x2 = 0.5965 | 804.6
352.88 K, 25048 kPa, x2 = 0.8663 | 769.99
352.88 K, 25092 kPa, x2 = 0.5965 | 806.79
362.66 K, 20602 kPa, x2 = 0.9698 | 595.03
362.66 K, 21041 kPa, x2 = 0.9698 | 604.05
362.66 K, 22017 kPa, x2 = 0.9698 | 622.53
362.66 K, 23022 kPa, x2 = 0.9698 | 639.79
362.66 K, 24038 kPa, x2 = 0.9698 | 655.56
362.66 K, 25046 kPa, x2 = 0.9698 | 669.85
362.67 K, 1053 kPa, x2 = 0.0251 | 755.01
362.67 K, 2066 kPa, x2 = 0.0251 | 756.19
362.67 K, 3045 kPa, x2 = 0.0251 | 757.27
362.67 K, 4013 kPa, x2 = 0.0251 | 758.36
362.67 K, 5068 kPa, x2 = 0.0251 | 759.49
362.67 K, 6009 kPa, x2 = 0.0251 | 760.49
362.67 K, 6988 kPa, x2 = 0.0251 | 761.58
